According to patent US10787424B2, “Oxopiperazine helix mimetics for control of Hypoxia-Inducible gene expression” (NEW YORK UNIVERSITY, priority 2014, dated 2020):
Where two headings read alike, the source gives them in different places.

Columns and labels:
[1] = molecular target: T1, human p300 CH1 domain (p300-CH1) (Homo sapiens, UniProt Q09472); assay: Tryptophan fluorescence binding assay for p300-CH1
T1 construct: human p300 CH1 domain (amino acid residues 323-423); GST (N, cleaved yes); made in house; host or cells: E. coli BL21(DE3)
From the text: The DNA sequence of the human p300 CH1 domain (amino acid residues 323-423) was subcloned into a pUC57 plasmid by Genscript, Inc. After transformation of JM109 bacteria (Promega) with the plasmid, it was amplified and purified. Then the gene of interest was subcloned between BamHI and EcoRI restriction sites of pGEX-4T-2 expression vector (Amersham).
The pGEX-4T-2-p300 fusion vector was transformed into BL21(DE3) competent E.coli (Novagen) in M9 minimal media with ^15NH4Cl as the primary nitrogen source. Protein production was induced with 1 mM IPTG at OD600 of 1 for 16 hours at 15° C. Production of the desired p300-CH1-GST fusion product was verified by SDS-PAGE. Bacteria were harvested and resuspended in the lysis buffer with 20 mM Phosphate buffer (Research Products International, Corp.), 100 μM DTT (Fisher), 100 μM ZnSO4 (Sigma), 0.5% TritonX 100 (Sigma), […] Pepstatin A (Research Products International, Corp.), […] Leupeptin A (Research Products International, Corp.), 500 μM PMSF (Sigma), and 0.5% glycerol at pH 8.0. Pellets were lysed by sonication and centrifuged at 4° C. and 20,000 rpm for 20 minutes. Fusion protein was collected from the bacterial supernatant and purified by affinity chromatography using glutathione Sepharose 4B beads (Amersham) prepared according to the manufacturer's directions. GST-tag was cleaved by thrombin and protein was eluted from resin. Collected fractions were assayed by SDS-PAGE gel; pooled fractions were treated with protease inhibitor cocktail (Sigma) and against a buffer containing 10 mM Tris, 50 mM NaCl, 2 mM DTT (Fisher), and 3 equivalents ZnSO4 at pH 8.0 to ensure proper folding (vide supra).
Relative affinities of OHMs for p300-CH1 were determined using a tryptophan fluorescence binding assay. Spectra were recorded on a QuantaMaster 40 spectrofluorometer (Photon Technology International) in a 10 mm quartz fluorometer cell at 25° C. with 4 nm excitation and 4 nm emission slit widths from 200 to 400 nm at intervals of 1 nm/s. Samples were excited at 295 nm and fluorescence emission was measured from 200-400 nm and recorded at 335 nm. OHM stock solutions were prepared in DMSO. Aliquots containing 1 μL DMSO stocks were added to 400 μL of 1 μM p300-CH1 in 50 mM Tris and 100 μM NaCl (pH 8.0). After each addition, the sample was allowed to equilibrate for 5 minutes before UV analysis. Background absorbance and sample dilution effects were corrected by titrating DMSO into p300-CH1 in an analogous manner. Final fluorescence is reported as the absolute value of [(F1-F0)/F1]*100, where F1 is the final fluorescence upon titration, and F0 is the fluorescence of the blank DMSO titration. EC50 values for each peptide were determined by fitting the experimental data to a sigmoidal dose-response nonlinear regression model in GraphPad Prism 5.0, and the dissociation constants, KD, were obtained from equation (2). KD=(RT×(1−FSB)+LST×FSB^2)/FSB−LST (2)
where: • RT=Total concentration of p300-CH1 • LST=Total concentration of fluorescent peptide • FSB=Fraction of bound fluorescent peptide Results and Discussion of Examples 1-8

p300-CH1 domain = molecular target: T2, p300-CH1 domain (Homo sapiens, UniProt Q09472); conditions: 15N-labeled CH1; earlier study; cited from earlier work
T2 construct: human p300 CH1 domain (amino acid residues 323-423); GST (N, cleaved yes); made in house; host or cells: E. coli BL21(DE3)

HIF signaling = conditions: cell culture, at micromolar levels; earlier study; cited from earlier work
[2] = tested on: triple-negative breast cancer cell line MDA-MB-231 xenograft; conditions: MDA-MB-231 mouse xenograft; earlier study; cited from earlier work
[3] = tested on: over 28,000 transcripts (genome-wide off-target regulation); conditions: microarray gene expression profiling; earlier study; cited from earlier work
[4] = binding affinity for p300-CH1, intrinsic tryptophan fluorescence assay (Table 8), read-out: Kd

T1 sequence (Q09472 323-423): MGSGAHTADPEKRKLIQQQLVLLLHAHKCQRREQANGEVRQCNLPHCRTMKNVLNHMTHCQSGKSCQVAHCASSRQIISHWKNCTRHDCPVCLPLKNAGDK
T2 sequence (Q09472 323-423): as above

Question: What does the source list for `CC(C)C[C@@H]1NCCN([C@@H](CC(C)C)C(=O)N2CCN([C@@H](CCC(N)=O)C(N)=O)C(=O)[C@@H]2C)C1=O` [OHM 21, LLAQ-NH2]?
Answer: Kd [1, 4]: 530 ± 140 nM; HSQC resonance shifts on addition of compound (p300-CH1 domain): consistent shifts in resonances of residues corresponding to the HIF1α816-824 binding pocket; downregulation of HIF signaling (HIF signaling): efficiently downregulated HIF signaling; effect on tumor levels [2]: reduced tumor levels; specificity on genome-wide scale [3]: remarkably specific

Question: Which Kd [1, 4] does the source give for `CC(C)C[C@@H]1NCCN([C@@H](C)C(=O)N2CCN([C@@H](CCC(N)=O)C(N)=O)C(=O)[C@@H]2C)C1=O` [OHM 22, LAAQ] here?
Answer: > 10000 nM

Question: What about the Kd ([1]; p300-CH1, text value, read-out: Kd for p300-CH1) of the same molecule?
Answer: > 30000 nM

Question: Which results are given for `CCCC[C@@H](C(=O)N1CCN([C@@H](CCC(N)=O)C(N)=O)C(=O)[C@@H]1C)N1CCN[C@@H](CC(C)C)C1=O` [OHM 23, L(Nle)AQ]?
Answer: Kd [1, 4]: 30 ± 10 nM; Kd ([1]; cross-specificity, p300-CH1 (Table 9), read-out: p300 Kd): 30 ± 10 nM; enhancement in binding affinity over parent OHM 21 ([1]; p300, relative to OHM 21): 13 fold

Question: For `CC(C)CC[C@@H]1NCCN([C@@H](CCC(C)C)C(=O)N2CCN([C@@H](CCC(N)=O)C(N)=O)C(=O)[C@@H]2C)C1=O` [OHM 25, (Hle)(Hle)AQ], which Kd [1, 4] is on record?
Answer: 160 ± 60 nM

Question: For `CC(C)C[C@@H]1NCCN([C@@H](CC(C)C)C(=O)N2CCN([C@@H](C)C(N)=O)C(=O)[C@@H]2C)C1=O` [OHM 26], which Kd [1, 4] is on record?
Answer: 620 ± 270 nM

Question: Which Kd [1, 4] does the source give for `C[C@@H]1NCCN([C@@H](C)C(=O)N2CCN([C@@H](C)C(N)=O)C(=O)[C@@H]2C)C1=O` [OHM 27] here?
Answer: > 10000 nM
